Tests used:
Assay type in all cases: in vivo, human
[1] = test system: boys with Duchenne muscular dystrophy (DMD); assay: Functional sympatholysis (LBNP, NIR spectroscopy, rest vs handgrip) with PDE5 inhibition in DMD; conditions: for effect of chronic background medication on functional sympatholysis / functional ischemia in DMD: boys with DMD on chronic glucocorticoid or prophylactic cardiac treatment; for LBNP-induced ΔHbO2+MbO2 (% TLS) at rest / LBNP-induced ΔHbO2+MbO2 (% TLS) during handgrip: DMD, analysis using all 12 boys
Procedure: Forearm muscle oxygenation was measured with near-infrared (NIR) spectroscopy, as previously described.^4B Briefly, optodes were placed over the belly of the flexor digitorum profundus, the main muscle recruited during handgrip. The optodes were housed in a customized flexible rubber casing, ensuring a fixed and invariant position of the optodes relative to each other, and was secured to the skin with adhesive. The optodes were covered with an optically dense, black vinyl sheet, to minimize interference from external light or loss of NIR transmitted light. The forearm was wrapped with an elastic bandage to minimize movement of the optodes.
Before each experiment, absorption and scattering coefficients were calibrated against an external standard. After each experiment, a cuff was inflated on the upper arm to supra-systolic pressure of 200 mmHg to establish the total labile signal (TLS, the difference between the baseline and nadir in muscle tissue oxygenation). Changes in forearm tissue oxygenation were expressed as a percentage of TLS.
Handgrip exercise was performed with a dynamometer (Smedley Hand Dynamometer modified by Stoelting). To determine maximal voluntary contraction (MVC), each subject was asked to grip the dynamometer as hard as possible. […] Subjects performed intermittent isometric handgrip (20 handgrips per minute, 50% duty cycle) at 20% MVC for 7 minutes.
The subjects lower body was enclosed in a negative pressure chamber to the level of the iliac crest as previously described.^9B The pressure of the chamber was measured by a Statham transducer (Gould Inc.). Lower body negative pressure (LBNP) at −20 mmHg simulates mild orthostatic stress (that is, transition from the supine to the seated position). This technique mainly unloads the cardiopulmonary baroreceptors, producing highly reproducible reflex increases in sympathetic vasoconstrictor drive to the skeletal muscle vasculature without changing systemic blood pressure.^9B
The subjects' lower body was enclosed in a negative pressure chamber to the level of the iliac crest as previously described. The pressure in the chamber was measured by a Statham transducer (Gould Inc.). Lower body negative pressure (LBNP) at −20 to −30 mmHg simulates mild orthostatic stress caused by transition from the supine to the seated position. This technique mainly unloads the low-pressure cardiopulmonary baroreceptors, producing highly reproducible reflex increases in sympathetic vasoconstrictor drive to the skeletal muscle vasculature without changing systemic blood pressure. To measure exercise-induced attenuation of reflex vasoconstriction (i.e., functional sympatholysis), the LBNP was (i) applied at rest, and then (ii) superimposed on mild rhythmic handgrip at 20% MVC. Reflex vasoconstriction was measured as the LBNP-induced decrease in forearm muscle oxygenation by NIR spectroscopy. Using the pressure inside the LBNP chamber as a trigger, the Powerlab software was programed to mean the HbO2+MbO2 signal for 20 seconds before the onset of LBNP and for 20 seconds before the offset of LBNP; the difference between these mean values was taken as the LBNP-induced change in forearm muscle tissue oxygenation (20). Blood pressure, heart rate, and handgrip force were also recorded in response to 2 minutes of LBNP applied at rest and during the third to fifth minutes of the 7-minute exercise protocol.
Patients received 0.5 mg/kg of oral sildenafil or tadalafil on day 1, followed by 1.0 mg/kg of sildenafil or tadalafil on day 2. Patients then crossed over 2 weeks later for the opposite drug. Experiments were performed 1 hour (sildenafil) or 3 hours (tadalafil) after oral treatment to match the experiment with the peak blood level. Patients were queried about potential side-effects throughout the study visit. […]

[2] = test system: boys with Duchenne muscular dystrophy (DMD); assay: Exercise-induced hyperemia: brachial artery blood flow by Doppler ultrasound and hemodynamics, rest and post handgrip; design: key to BA velocity: mean blood velocity in cm/s; Heart rate: unit not given here
Procedure: Subjects were studied in the supine position. Heart rate was measured continuously by electrocardiography, and blood pressure measured by automated oscillometric sphygomanometry using a child's cuff ([…] Monitor 300 Series). Brachial artery mean blood velocity (MBV) was measured from the exercising arm using pulsed-Doppler ultrasonography (Siemens iE33). Data were acquired continuously with a 9-MHz probe with a 60° angle of insonation, placed on the skin surface distal to the axilla. The ultrasound gate was optimized to ensure complete insonation of the entire vessel cross-section with constant intensity. The Doppler audio signal was converted to a real-time flow velocity signal using a validated Doppler audio converter,^8B and recorded using a PowerLab data acquisition system (ADInstruments, CO). Brachial artery diameter was measured by B-mode imaging in triplicate at rest. […] Brachial artery blood flow was calculated as MBV (cm/s)·πr^2·60, where r is radius of the brachial artery. […] exercise was performed with a dynamometer ([…] Dynamometer modified by Stoelting). To determine maximal voluntary contraction (MVC), each subject was asked to grip the dynamometer as hard as possible. […] Vascular conductance was calculated as forearm blood flow divided by mean arterial pressure. […] Patients then crossed over 2 weeks later for the opposite drug. […] Patients were queried about potential side-effects throughout the study visit. Baseline characteristics of patients and controls were compared using Student's t test. Exercise-induced attenuation of reflex vasoconstriction (functional sympatholysis) was assessed by comparing the LBNP-induced AHbO2+MbO2 (% TLS) at rest versus the LBNP-induced decrease in ΔHbO2+MbO2 during handgrip. Group differences in ΔHbO2+MbO2 were assessed using a Student's t test. The drug treatment effect on LBNP-induced Δ·HbO2+MbO2 (% TLS) at rest versus the LBNP-induced decrease in ΔHbO2+MbO2 during handgrip was compared to baseline for each patient using a Student's t test. The group difference in the % Δ in brachial artery blood flow was assessed using a student's t test. The drug treatment effect on the % Δ in brachial artery blood flow was compared using a student's t test. All analyses were performed in SigmaPlot. Data are expressed as mean±SEM, unless otherwise specified.

[3] = Pharmacokinetic study and drug blood levels in boys with DMD; conditions: male, human, in vivo
Procedure: Serum blood samples for pharmacokinetic determinations were collected from patients at time 0-hr, 0.25-hr, 0.5-hr, 1-hr, 2-hr, 4-hr, 8-hr, and 24-hr following each treatment (sildenafil and tadalafil) and each dose (0.5 vs. 1.0 mg/kg). Blood levels were measured with high-performance liquid chromatography-tandem mass spectrometry (NMS Labs).
Patients received 0.5 mg/kg of oral sildenafil or tadalafil on day 1, followed by 1.0 mg/kg of sildenafil or tadalafil on day 2. Patients then crossed over 2 weeks later for the opposite drug. Experiments were performed 1 hour (sildenafil) or 3 hours (tadalafil) after oral treatment to match the experiment with the peak blood level. Patients were queried about potential side-effects throughout the study visit.

For `NCCCC[C@H](N[C@@H](CCc1ccccc1)C(=O)O)C(=O)N1CCC[C@H]1C(=O)O` [lisinopril], the “effect of chronic background medication on functional sympatholysis / functional ischemia in DMD” value [1] was “does not rescue functional sympatholysis”.

For `CCCCc1nc(Cl)c(CO)n1Cc1ccc(-c2ccccc2-c2nn[nH]n2)cc1` [losartan], the “effect of chronic background medication on functional sympatholysis / functional ischemia in DMD” value [1] was “does not rescue functional sympatholysis”.

In the case of `CCCc1nn(C)c2c(=O)[nH]c(-c3cc(S(=O)(=O)N4CCN(C)CC4)ccc3OCC)nc12` [sildenafil], the “BA VC (vascular conductance)” value ([2]; 0.5 mg/kg, Post-exercise) is reported as 2.3 ± 0.3 ml/min/mmHg, the BA blood flow ([2]; 0.5 mg/kg, Post-exercise) is reported as 172 ± 18 mL/min and the BA velocity ([2]; 0.5 mg/kg, Post-exercise) is reported as 32 ± 3. The Heart rate ([2]; 0.5 mg/kg, Post-exercise) was 88 ± 6, the MAP ([2]; 0.5 mg/kg, Post-exercise) was 75 ± 2 mmHg and the “BA VC (vascular conductance)” value ([2]; 0.5 mg/kg, Rest) was 1.7 ± 0.3 ml/min/mmHg. It also gave a BA blood flow ([2]; 0.5 mg/kg, Rest) of 125 ± 19 mL/min, a BA velocity ([2]; 0.5 mg/kg, Rest) of 24 ± 4 and a Heart rate ([2]; 0.5 mg/kg, Rest) of 84 ± 5. The MAP ([2]; 0.5 mg/kg, Rest) was 77 ± 6 mmHg, the “BA VC (vascular conductance)” value ([2]; 1.0 mg/kg, Post-exercise) was 2.7 ± 0.3 ml/min/mmHg and the BA blood flow ([2]; 1.0 mg/kg, Post-exercise) was 196 ± 22 mL/min. The BA velocity ([2]; 1.0 mg/kg, Post-exercise) was 37 ± 3, the Heart rate ([2]; 1.0 mg/kg, Post-exercise) was 93 ± 5 and the MAP ([2]; 1.0 mg/kg, Post-exercise) was 74 ± 2 mmHg. The “BA VC (vascular conductance)” value ([2]; 1.0 mg/kg, Rest) was 1.9 ± 0.3 ml/min/mmHg, the BA blood flow ([2]; 1.0 mg/kg, Rest) was 137 ± 21 mL/min and the BA velocity ([2]; 1.0 mg/kg, Rest) was 27 ± 5. For the same compound, the Heart rate ([2]; 1.0 mg/kg, Rest) was 92 ± 5, the MAP ([2]; 1.0 mg/kg, Rest) was 74 ± 2 mmHg and the “restoration of functional sympatholysis in DMD (in words)” value ([1]; 6 patients with DMD, 0.5 and 1.0 mg/kg) was “equally restores functional sympatholysis”. For the same compound, the “LBNP-induced ΔHbO2+MbO2 (% TLS) at rest” value ([1]; 0.5 mg/kg oral) was −18±4%, the “LBNP-induced ΔHbO2+MbO2 (% TLS) during handgrip” value ([1]; 0.5 mg/kg oral) was −10±3% and the “LBNP-induced ΔHbO2+MbO2 (% TLS) at rest” value ([1]; 1.0 mg/kg oral) was −20±3%. The “LBNP-induced ΔHbO2+MbO2 (% TLS) during handgrip” value ([1]; 1.0 mg/kg oral) was −1±3%, the half-life ([3]; 0.5 mg/kg) was 2.4 ± 0.09 h and the half-life ([3]; 1 mg/kg) was 3.2 ± 0.5 h. The “time after ingestion at which blood level had returned close to baseline” value ([3]; po) was 4 h, the peak blood level ([3]; po, 0.5 mg/kg) was 82.5 ± 26.6 ng/mL and the peak blood level ([3]; po, 1 mg/kg) was 167.5 ± 34.1 ng/mL.

With `CC(=O)OCC(=O)[C@@]12N=C(C)O[C@@H]1C[C@H]1[C@@H]3CCC4=CC(=O)C=C[C@]4(C)[C@H]3[C@@H](O)C[C@@]12C` [deflazacort] the “effect of chronic background medication on functional sympatholysis / functional ischemia in DMD” value [1] was “neither prednisone nor deflazacort protects dystrophic muscle from functional ischemia”.

In the case of `C[C@]12C=CC(=O)C=C1CC[C@@H]1[C@@H]2C(=O)C[C@@]2(C)[C@H]1CC[C@]2(O)C(=O)CO` [prednisone], the “effect of chronic background medication on functional sympatholysis / functional ischemia in DMD” value [1] is reported as “neither prednisone nor deflazacort protects dystrophic muscle from functional ischemia”.

— patent publication US20160067246A1, “USE OF PHOSPHODIESTERASE 5A INHIBITORS FOR THE TREATMENT OF MUSCULAR DYSTROPHY” (CEDARS-SINAI MEDICAL CENTER, priority 2013, published 2016)
